Among the data in patent publication US9796686B2, “Antibacterial quinazoline-4(3H)-one derivatives” (priority 2014, dated 2017) are MIC values, retold here.

What all share (experiment): Bacterial growth minimal inhibitory concentration, microdilution in cation-adjusted Mueller-Hinton Broth (CLSI M7-A7)
Common to all, as to format: cell-based

Assay [1] relates to E. coli ATCC25922. The conditions noted are these: Escherichia coli, ATCC25922; quinolone-sensitive strain; read-out: MIC for E. coli ATCC25922. The method, then: (§1) Minimal Inhibitory Concentrations (MICs; mg/L) were determined in cation-adjusted Mueller-Hinton Broth by a microdilution method following the description given in “Methods for Dilution Antimicrobial Susceptibility Tests for Bacteria that Grow Aerobically”, Approved standard, 7th ed., Clinical and Laboratory Standards Institute (CLSI) Document M7-A7, Wayne, Pa., U.S.A. (2006).
(§2) All Example compounds were tested against several Gram-positive and Gram-negative bacteria. […] K. pneumoniae A-651 is a multiply-resistant strain (in particular quinolone-resistant), while E. coli ATCC25922 and P. aeruginosa ATCC27853 are quinolone-sensitive strains.

Assay [2] deals with K. pneumoniae A-651. Conditions: Klebsiella pneumoniae, A651; multiply-resistant strain (in particular quinolone-resistant); read-out: MIC for K. Pneumoniae A-651. The method, then:
as §1, §2

For assay [3], the system named is P. aeruginosa ATCC27853. Conditions: Pseudomonas aeruginosa, ATCC27853; quinolone-sensitive strain; read-out: MIC for P. aeruginosa ATCC27853. The method, then:
as §1, §2

Converted amounts (≈) assume the structure as drawn. Some results are limits rather than exact numbers.

Regarding `C[C@@](CCn1cnc2cc(C#CC#CC3(C(O)CO)CC3)ccc2c1=O)(C(=O)NO)S(C)(=O)=O` (mixture of isomers) [Example 19, (2R)-4-(7-((1-((RS)-1,2-dihydroxyethyl)cyclopropyl)buta-1,3-diyn-1-yl)-4-oxoquinazolin-3(4H)-yl)-N-hydroxy-2-methyl-2-(methylsulfonyl)butanamide], the MIC was 8 µg/mL in assay [1], 32 µg/mL in assay [2] and 8 µg/mL in assay [3].
Consider `CC(CCn1cnc2cc(-c3ccc(OCCCN4CCOCC4)cc3F)ccc2c1=O)(C(=O)NO)S(C)(=O)=O.O=CO` (racemic) [RE1, (RS)-4-(7-(2-fluoro-4-(3-morpholinopropoxy)phenyl)-4-oxoquinazolin-3(4H)-yl)-N-hydroxy-2-methyl-2-(methylsulfonyl)butanamide formate], for which the values for the MIC in assay [1], in assay [2] and in assay [3] were 1 µg/mL, 2 µg/mL and 16 µg/mL, respectively.
For `CC(CCn1cnc2cc(-c3ccc(OCCCN4CCOCC4)cc3)ccc2c1=O)(C(=O)NO)S(C)(=O)=O.O=CO` (racemic) [RE2, (RS)-N-hydroxy-2-methyl-2-(methylsulfonyl)-4-(7-(4-(3-morpholinopropoxy)phenyl)-4-oxoquinazolin-3(4H)-yl)butanamide formate] the same measures were 1 µg/mL, 2 µg/mL and 8 µg/mL.
For `CC(CCn1cnc2cc(-c3ccc(OCCN4CCOCC4)cc3F)ccc2c1=O)(C(=O)NO)S(C)(=O)=O.O=CO` (racemic) [RE3, (RS)-4-(7-(2-fluoro-4-(2-morpholinoethoxy)phenyl)-4-oxoquinazolin-3(4H)-yl)-N-hydroxy-2-methyl-2-(methylsulfonyl)butanamide formate] the same measures were 2 µg/mL, 4 µg/mL and 16 µg/mL.
The like results for `COc1cccc(-c2ccc3c(=O)n(CCC(C)(C(=O)NO)S(C)(=O)=O)cnc3c2)c1F` (racemic) [RE4, (RS)-4-(7-(2-fluoro-3-methoxyphenyl)-4-oxoquinazolin-3(4H)-yl)-N-hydroxy-2-methyl-2-(methylsulfonyl)butanamide] were, in that order, 0.125 µg/mL (≈ 0.27 µM), ≤ 0.063 µg/mL and 8 µg/mL (≈ 17.3 µM).
Take `COc1ccc(-c2ccc3c(=O)n(CCC(C)(C(=O)NO)S(C)(=O)=O)cnc3c2)cc1F` (racemic) [RE5, (RS)-4-(7-(3-fluoro-4-methoxyphenyl)-4-oxoquinazolin-3(4H)-yl)-N-hydroxy-2-methyl-2-(methylsulfonyl)butanamide]: the minimum inhibitory concentration (MIC) in assay [1] is 0.25 µg/mL (≈ 0.539 µM); in assay [2], 1 µg/mL (≈ 2.16 µM); in assay [3] it was 16 µg/mL (≈ 34.5 µM).
Take `CN(C)c1ccc(-c2ccc3c(=O)n(CCC(C)(C(=O)NO)S(C)(=O)=O)cnc3c2)cc1` (racemic) [RE6, (RS)-4-(7-(4-(dimethylamino)phenyl)-4-oxoquinazolin-3(4H)-yl)-N-hydroxy-2-methyl-2-(methylsulfonyl)butanamide]: the MIC in assay [1] is 0.125 µg/mL (≈ 0.273 µM); in assay [2] it was 0.125 µg/mL (≈ 0.273 µM); in assay [3], 16 µg/mL (≈ 34.9 µM).
Take `CC(CCn1cnc2cc(-c3ccc(CO)cc3)ccc2c1=O)(C(=O)NO)S(C)(=O)=O` (racemic) [RE7, (RS)-N-hydroxy-4-(7-(4-(hydroxymethyl)phenyl)-4-oxoquinazolin-3(4H)-yl)-2-methyl-2-(methylsulfonyl)butanamide]: the minimal inhibitory concentration (MIC) in assay [1] came to 2 µg/mL (≈ 4.49 µM); in assay [2], 8 µg/mL (≈ 18 µM); in assay [3], 16 µg/mL (≈ 35.9 µM).
For `CC(CCn1cnc2cc(-c3ccc(CN4CCOCC4)cc3)ccc2c1=O)(C(=O)NO)S(C)(=O)=O.O=CO` (racemic) [RE8, (RS)-N-hydroxy-2-methyl-2-(methylsulfonyl)-4-(7-(4-(morpholinomethyl)phenyl)-4-oxoquinazolin-3(4H)-yl)butanamide formate] the same measures were 1 µg/mL, 2 µg/mL and 16 µg/mL.
The like results for `CC(CCn1cnc2cc(-c3ccccc3)c(F)cc2c1=O)(C(=O)NO)S(C)(=O)=O` (racemic) [RE9, (RS)-4-(6-fluoro-4-oxo-7-phenylquinazolin-3(4H)-yl)-N-hydroxy-2-methyl-2-(methylsulfonyl)butanamide] were, in that order, 0.25 µg/mL (≈ 0.577 µM), ≤ 0.063 µg/mL and 16 µg/mL (≈ 36.9 µM).
For `CC(CCn1cnc2cc(C#Cc3ccc(CO)cc3)ccc2c1=O)(C(=O)NO)S(C)(=O)=O` (racemic) [RE10, (RS)-N-hydroxy-4-(7-((4-(hydroxymethyl)phenyl)ethynyl)-4-oxoquinazolin-3(4H)-yl)-2-methyl-2-(methylsulfonyl)butanamide] the same measures were 0.25 µg/mL (≈ 0.532 µM), 1 µg/mL (≈ 2.13 µM) and 16 µg/mL (≈ 34.1 µM).
As to `CC(CCn1cnc2cc(C#Cc3ccc(C4(O)COC4)cc3)ccc2c1=O)(C(=O)NO)S(C)(=O)=O` (racemic) [RE11, (RS)-N-hydroxy-4-(7-((4-(3-hydroxyoxetan-3-yl)phenyl)ethynyl)-4-oxoquinazolin-3(4H)-yl)-2-methyl-2-(methylsulfonyl)butanamide], the values for the MIC in assay [1], in assay [2] and in assay [3] were 1 µg/mL (≈ 1.95 µM), 1 µg/mL (≈ 1.95 µM) and 8 µg/mL (≈ 15.6 µM), respectively.
For the molecule `CC(CCn1cnc2cc(C#Cc3ccc(CN4CCOCC4)cc3)ccc2c1=O)(C(=O)NO)S(C)(=O)=O.O=CO` (racemic) [RE12, (RS)-N-hydroxy-2-methyl-2-(methylsulfonyl)-4-(7-((4-(morpholinomethyl)phenyl)ethynyl)-4-oxoquinazolin-3(4H)-yl)butanamide formate], the minimum inhibitory concentration (MIC) in assay [1] worked out at 0.5 µg/mL; in assay [2] it was 0.5 µg/mL; in assay [3] it was 16 µg/mL.
As to `C[C@@](CCn1cnc2cc(C#CC#C[C@@]3(F)C[C@@H]3CO)ccc2c1=O)(C(=O)NO)S(C)(=O)=O` (relative stereo) [Example 30, (R)-4-(7-(((1R*,2R*)-1-fluoro-2-(hydroxymethyl)cyclopropyl)buta-1,3-diyn-1-yl)-4-oxoquinazolin-3(4H)-yl)-N-hydroxy-2-methyl-2-(methylsulfonyl)butanamide], the MIC in assay [1] was 0.25 µg/mL (≈ 0.526 µM); in assay [2] it was 0.5 µg/mL (≈ 1.05 µM); in assay [3], 1 µg/mL (≈ 2.1 µM).
For `C[C@@](CCn1cnc2cc(C#CC#C[C@H]3C[C@]3(F)CO)ccc2c1=O)(C(=O)NO)S(C)(=O)=O` (relative stereo) [Example 33, (R)-4-(7-(((1R*,2R*)-2-fluoro-2-(hydroxymethyl)cyclopropyl)buta-1,3-diyn-1-yl)-4-oxoquinazolin-3(4H)-yl)-N-hydroxy-2-methyl-2-(methylsulfonyl)butanamide] the same measures were 0.25 µg/mL (≈ 0.526 µM), 0.5 µg/mL (≈ 1.05 µM) and 0.5 µg/mL (≈ 1.05 µM).
For `COc1ccc(-c2ccc3c(=O)n(CC[C@](C)(C(=O)NO)S(C)(=O)=O)cnc3c2)c(F)c1` (single isomer, unassigned) [Example 1] the same measures were ≤ 0.063 µg/mL, 0.25 µg/mL (≈ 0.539 µM) and 4 µg/mL (≈ 8.63 µM).
For `C[C@@](CCn1cnc2cc(-c3ccccc3)ccc2c1=O)(C(=O)NO)S(C)(=O)=O` (single isomer, unassigned) [Example 2] the same measures were 0.25 µg/mL (≈ 0.602 µM), ≤ 0.063 µg/mL and 8 µg/mL (≈ 19.3 µM).
On to `C[C@@](CCn1cnc2cc(C#CC#C[C@H]3C[C@@H]3CO)ccc2c1=O)(C(=O)NO)S(C)(=O)=O` [Example 3, (R)-N-hydroxy-4-(7-(((1S,2S)-2-(hydroxymethyl)cyclopropyl)buta-1,3-diyn-1-yl)-4-oxoquinazolin-3(4H)-yl)-2-methyl-2-(methylsulfonyl)butanamide], for which the minimal inhibitory concentration (MIC) in assay [1] was 0.125 µg/mL (≈ 0.273 µM); in assay [2], 0.5 µg/mL (≈ 1.09 µM); in assay [3] it was 1 µg/mL (≈ 2.19 µM).

For orientation: MIC means the lowest concentration that inhibits growth of the organism.
